Data published in patent US8901118B2, “Compounds and methods for kinase modulation, and indications therefor” (Plexxikon Inc., priority 2010, dated 2014).

Experiments:
[1] = biological target: T1, BCR-NTRK2 BaF3 cells (Homo sapiens, UniProt Q16620); assay: BaF3 BCR-NTRK2 cell proliferation assay (ATPlite); assay type: cell-based; conditions: read-out: Inhibition of Cell Proliferation IC50, BCR/BaF3 TrkB
T1 construct: fused on or other part: P11274 (Breakpoint cluster region protein)
In short: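 BaF3 cells expressing BCR fusions were plated at 10,000 cells/well without IL-3, and MV-4-11 cells at 25,000 cells/well. Cells were treated the next day with an 8-point 1:3 dilution series (top 10 μM final) and incubated 3 days at 37 °C. ATPlite luminescence gave cell number, from which IC50 was fitted.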

[2] = Relative solubility by turbidity in aqueous buffers (pH 1.5, 4.5, 6.8, 7.4); assay type: physicochemical; conditions: for turbidity threshold (L, M, H) 1.4: pH 1.5 (SGF); for turbidity threshold (L, M, H) 4.5: pH 4.5 (SIF); for turbidity threshold (L, M, H) 6.8: pH 6.8 (SIF); for turbidity threshold (L, M, H) 7.4: pH 7.4 (HEPES)
In short: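 Twofold DMSO dilutions of a 25 mM stock were spiked into SGF (0.5M NaCl, pH 1.5), SIF (0.05M NaH2PO4, pH 4.5 and 6.8) or HEPES buffer (10 mM HEPES, 150 mM NaCl, pH 7.4). Absorbance was read at 490, 535 and 650 nm. The endpoint is the concentration crossing O.D. 0.01, averaged across wavelengths.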

T1 sequence (Q16620 538-807): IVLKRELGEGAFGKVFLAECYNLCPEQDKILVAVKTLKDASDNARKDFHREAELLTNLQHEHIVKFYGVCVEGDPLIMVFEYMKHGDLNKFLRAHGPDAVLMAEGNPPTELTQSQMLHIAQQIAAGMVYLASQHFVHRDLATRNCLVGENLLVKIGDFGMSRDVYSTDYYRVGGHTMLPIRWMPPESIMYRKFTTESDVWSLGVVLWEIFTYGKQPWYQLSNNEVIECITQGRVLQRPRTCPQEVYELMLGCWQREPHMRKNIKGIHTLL

Row | Structure (SMILES) | IC50 [1] | turbidity threshold (L, M, H) 1.4 [2] | turbidity threshold (L, M, H) 4.5 [2] | turbidity threshold (L, M, H) 6.8 [2] | turbidity threshold (L, M, H) 7.4 [2]
1 | CCc1ccc(Nc2ccc(C(=O)c3c[nH]c4ncnc(NC(C)C)c34)c(F)n2)cn1 [Compound P-4117, [6-[(6-ethyl-3-pyridyl)amino]-2-fluoro-3-pyridyl]-[4-(isopropylamino)-7H-pyrrolo[2,3-d]pyrimidin-5-yl]methanone] | < 10 nM | H (high solubility if the threshold concentration is >250 μm) | L (low solubility if the threshold concentration is <31.3 μM) | L (low solubility if the threshold concentration is <31.3 μM) | L (low solubility if the threshold concentration is <31.3 μM)
2 | CCc1ccc(Nc2ccc(C(=O)c3c[nH]c4ncnc(NCC5CC5)c34)c(F)n2)cn1 [Compound P-4118, [4-(cyclopropylmethylamino)-7H-pyrrolo[2,3-d]pyrimidin-5-yl]-[6-[(6-ethyl-3-pyridyl)amino]-2-fluoro-3-pyridyl]methanone] | < 10 nM | H (high solubility if the threshold concentration is >250 μm) | M (moderate solubility if the threshold concentration is 31.3 μM to 250 μM) | M (moderate solubility if the threshold concentration is 31.3 μM to 250 μM) | L (low solubility if the threshold concentration is <31.3 μM)
3 | CCc1ccc(Nc2ccc(C(=O)c3c[nH]c4ncnc(NCCOC)c34)c(F)n2)cn1 [Compound P-4119, [6-[(6-ethyl-3-pyridyl)amino]-2-fluoro-3-pyridyl]-[4-(2-methoxyethylamino)-7H-pyrrolo[2,3-d]pyrimidin-5-yl]methanone] | < 10 nM | H (high solubility if the threshold concentration is >250 μm) | M (moderate solubility if the threshold concentration is 31.3 μM to 250 μM) | M (moderate solubility if the threshold concentration is 31.3 μM to 250 μM) | L (low solubility if the threshold concentration is <31.3 μM)
4 | CCc1ccc(Nc2ccc(C(=O)c3c[nH]c4ncnc(NCC(F)(F)F)c34)c(F)n2)cn1 [Compound P-4120, [6-[(6-ethyl-3-pyridyl)amino]-2-fluoro-3-pyridyl]-[4-(2,2,2-trifluoroethylamino)-7H-pyrrolo[2,3-d]pyrimidin-5-yl]methanone] | < 10 nM | L (low solubility if the threshold concentration is <31.3 μM) | M (moderate solubility if the threshold concentration is 31.3 μM to 250 μM) | M (moderate solubility if the threshold concentration is 31.3 μM to 250 μM) | M (moderate solubility if the threshold concentration is 31.3 μM to 250 μM)
5 | CCc1ccc(Nc2ccc(C(=O)c3c[nH]c4ncnc(NCC(C)C)c34)c(F)n2)cn1 [Compound P-4121, [6-[(6-ethyl-3-pyridyl)amino]-2-fluoro-3-pyridyl]-[4-(isobutylamino)-7H-pyrrolo[2,3-d]pyrimidin-5-yl]methanone] | < 10 nM | H (high solubility if the threshold concentration is >250 μm) | H (high solubility if the threshold concentration is >250 μm) | H (high solubility if the threshold concentration is >250 μm) | H (high solubility if the threshold concentration is >250 μm)
6 | CCCNc1ncnc2[nH]cc(C(=O)c3ccc(Nc4ccc(CC)nc4)nc3F)c12 [Compound P-4122, [6-[(6-ethyl-3-pyridyl)amino]-2-fluoro-3-pyridyl]-[4-(propylamino)-7H-pyrrolo[2,3-d]pyrimidin-5-yl]methanone] | < 10 nM | H (high solubility if the threshold concentration is >250 μm) | L (low solubility if the threshold concentration is <31.3 μM) | M (moderate solubility if the threshold concentration is 31.3 μM to 250 μM) | L (low solubility if the threshold concentration is <31.3 μM)
7 | CCNc1ncnc2[nH]cc(C(=O)c3ccc(Nc4ccc(CC)nc4)nc3F)c12 [Compound P-4123, [4-(ethylamino)-7H-pyrrolo[2,3-d]pyrimidin-5-yl]-[6-[(6-ethyl-3-pyridyl)amino]-2-fluoro-3-pyridyl]methanone] | < 10 nM | H (high solubility if the threshold concentration is >250 μm) | L (low solubility if the threshold concentration is <31.3 μM) | L (low solubility if the threshold concentration is <31.3 μM) | L (low solubility if the threshold concentration is <31.3 μM)
8 | CCc1ccc(Nc2ccc(C(=O)c3c[nH]c4ncnc(NC)c34)c(F)n2)cn1 [Compound P-4124, [6-[(6-ethyl-3-pyridyl)amino]-2-fluoro-3-pyridyl]-[4-(methylamino)-7H-pyrrolo[2,3-d]pyrimidin-5-yl]methanone] | < 10 nM | M (moderate solubility if the threshold concentration is 31.3 μM to 250 μM) | L (low solubility if the threshold concentration is <31.3 μM) | L (low solubility if the threshold concentration is <31.3 μM) | M (moderate solubility if the threshold concentration is 31.3 μM to 250 μM)
9 | CCc1ccc(Nc2ccc(C(=O)c3c[nH]c4ncnc(NC5CC5)c34)c(F)n2)cn1 [Compound P-4125, [4-(cyclopropylamino)-7H-pyrrolo[2,3-d]pyrimidin-5-yl]-[6-[(6-ethyl-3-pyridyl)amino]-2-fluoro-3-pyridyl]methanone] | < 10 nM | H (high solubility if the threshold concentration is >250 μm) | L (low solubility if the threshold concentration is <31.3 μM) | L (low solubility if the threshold concentration is <31.3 μM) | L (low solubility if the threshold concentration is <31.3 μM)
10 | Fc1cc(Cc2c[nH]c3ncnc(NC4CC4)c23)cnc1NC1CCC(F)(F)CC1 [Compound P-4127, N-cyclopropyl-5-[[6-[(4,4-difluorocyclohexyl)amino]-5-fluoro-3-pyridyl]methyl]-7H-pyrrolo[2,3-d]pyrimidin-4-amine] | < 100 nM | H (high solubility if the threshold concentration is >250 μm) | M (moderate solubility if the threshold concentration is 31.3 μM to 250 μM) | M (moderate solubility if the threshold concentration is 31.3 μM to 250 μM) | M (moderate solubility if the threshold concentration is 31.3 μM to 250 μM)
